{
  "source": "ChEMBL document CHEMBL5338752",
  "about": "“Carbamate JNK3 Inhibitors Show Promise as Effective Treatments for Alzheimer's Disease: In Vivo Studies on Mouse Models” (J Med Chem, 2023)",
  "key": {"Mus musculus [1]": {"tested_on": "Mus musculus", "assay": "Anti-alzheimer activity against APP/PS1 dE9 double transgenic mouse model assessed as time spent in platform quadrant at 30 mg/kg, po administered daily for 2 months and measured after 74 days by Morris water maze test (reference value: 10.50+/-4.15 sec)", "type": "functional", "conditions": "time 74 day"}, "Mus musculus [2]": {"tested_on": "Mus musculus", "assay": "Anti-alzheimer activity against triple transgenic mouse alzheimer disease model assessed as time spent in platform quadrant at 60 mg/kg, po administered daily for 2.2 months and measured after 137 days by Morris water maze test (reference value: 12.26+/-2.34 sec)", "type": "functional", "conditions": "time 137 day"}, "[3]": {"assay": "AUClast in sixteen hrs fasted Sprague-Dawley rat at 3 mg/kg, po measured upto 24 hrs by LC-MS/MS analysis", "type": "ADME, organism-based", "set-up": "dose 3 mg/kg, time < 24 hrs, route po", "conditions": "in vivo"}, "Mus musculus [4]": {"tested_on": "Mus musculus", "assay": "Anti-alzheimer activity against triple transgenic mouse alzheimer disease model assessed as time spent in target zone at 30 mg/kg, po administered daily for 2.2 months and measured after 137 days by Morris water maze test (reference value: 4.48+/-1.63 sec)", "type": "functional", "conditions": "time 137 day"}, "[5]": {"assay": "Tmax in sixteen hrs fasted Sprague-Dawley rat at 3 mg/kg, po measured upto 24 hrs by LC-MS/MS analysis", "type": "ADME, organism-based", "conditions": "in vivo"}, "Mus musculus [6]": {"tested_on": "Mus musculus", "assay": "Anti-alzheimer activity against triple transgenic mouse alzheimer disease model assessed as path length at 30 mg/kg, po measured upto 5 days by Morris water maze test (reference value: 608.85+/-39.27 cm)", "type": "functional", "conditions": "time <= 5 day"}, "Mus musculus [7]": {"tested_on": "Mus musculus", "assay": "Anti-alzheimer activity against triple transgenic mouse alzheimer disease model assessed as spontaneous alteration at 30 mg/kg, po administered daily for 2.2 months and measured after 119 days by Y-maze test (reference value: 45.55+/-2.30%)", "type": "functional", "conditions": "time 119 day"}, "[8]": {"molecular_target": "Mitogen-activated protein kinase 10 (Rattus norvegicus) (UniProt P49187)", "sequence (P49187 whole entry)": "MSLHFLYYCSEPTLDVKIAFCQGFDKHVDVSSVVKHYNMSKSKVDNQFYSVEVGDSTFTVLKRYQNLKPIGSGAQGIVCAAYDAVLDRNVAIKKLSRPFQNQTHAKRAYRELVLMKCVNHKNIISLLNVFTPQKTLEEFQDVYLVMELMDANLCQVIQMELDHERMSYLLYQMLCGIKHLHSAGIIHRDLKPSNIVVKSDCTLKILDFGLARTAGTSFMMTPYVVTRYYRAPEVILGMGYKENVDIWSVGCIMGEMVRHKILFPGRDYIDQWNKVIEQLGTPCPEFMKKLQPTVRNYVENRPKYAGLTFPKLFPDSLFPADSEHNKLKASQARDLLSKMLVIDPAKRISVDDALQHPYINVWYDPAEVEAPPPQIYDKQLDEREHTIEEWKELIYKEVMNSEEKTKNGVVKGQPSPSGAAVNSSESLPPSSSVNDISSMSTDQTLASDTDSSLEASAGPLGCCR", "assay": "Inhibition of anisomycin induced JNK3 activation in rat cortex neuron cells assessed as inhibition of APP phosphorylation at 10 to 20 uM preincubated for 90 mins followed by anisomycin addition and measured after 40 mins by Western blot analysis", "type": "cell-based", "conditions": "dose 10-20 µM"}, "Mus musculus [9]": {"tested_on": "Mus musculus", "assay": "Anti-alzheimer activity against APP/PS1 dE9 double transgenic mouse model assessed as time spent in target zone at 60 mg/kg, po administered daily for 2 months and measured after 74 days by Morris water maze test (reference value: 6.76+/-3.20 sec)", "type": "functional", "conditions": "time 74 day"}, "Mus musculus [10]": {"tested_on": "Mus musculus", "assay": "Anti-alzheimer activity against triple transgenic mouse alzheimer disease model assessed as time spent in platform quadrant at 30 mg/kg, po administered daily for 2.2 months and measured after 137 days by Morris water maze test (reference value: 12.26+/-2.34 sec)", "type": "functional", "conditions": "time 137 day"}, "[11]": {"assay": "Apparent permeability of the compound across apical side to basolateral side in human Caco-2 cells", "type": "ADME, cell-based"}, "[12]": {"assay": "Half life in sixteen hrs fasted Sprague-Dawley rat at 3 mg/kg, po measured upto 24 hrs by LC-MS/MS analysis", "type": "ADME, organism-based", "conditions": "in vivo"}, "Mus musculus [13]": {"tested_on": "Mus musculus", "assay": "Anti-alzheimer activity against triple transgenic mouse alzheimer disease model assessed as spontaneous alteration at 60 mg/kg, po administered daily for 2.2 months and measured after 119 days by Y-maze test (reference value: 45.55+/-2.30%)", "type": "functional", "conditions": "time 119 day"}},
  "note": "The source made the active and inactive calls. The rule behind the calls is not given here.",
  "data": [
    {"smiles": "CNC(=O)Oc1cc(F)c2nc(-c3ccc4ccccc4c3)n(-c3ccnc(N[C@H]4CCCN(C(=O)C5CC5)C4)n3)c2c1", "values": [
      {"measurement": "Time", "setting": "Mus musculus [1]", "result": 16.44, "unit": "s"},
      {"measurement": "Time", "setting": "Mus musculus [2]", "result": 22.59, "unit": "s"},
      {"measurement": "AUC(0-t) at 24 h", "setting": "[3]", "result": 727, "unit": "ng·h/mL"},
      {"measurement": "Time", "setting": "Mus musculus [4]", "result": 17.1, "unit": "s"},
      {"measurement": "Tmax", "setting": "[5]", "result": 23.4, "unit": "min"},
      {"measurement": "Activity", "setting": "Mus musculus [6]", "result": 402.59, "unit": "cm"},
      {"measurement": "Activity", "setting": "Mus musculus [7]", "result": 49.78, "unit": "%"},
      {"measurement": "inhibition", "setting": "[8]", "result": "Active"},
      {"measurement": "Time", "setting": "Mus musculus [9]", "result": 16.27, "unit": "s"},
      {"measurement": "Time", "setting": "Mus musculus [10]", "result": 23.4, "unit": "s"},
      {"measurement": "Papp A→B", "setting": "[11]", "result": 1.7, "unit": "×10⁻⁶ cm/s"},
      {"measurement": "half-life", "setting": "[12]", "result": 58.2, "unit": "min"},
      {"measurement": "Activity", "setting": "Mus musculus [13]", "result": 54.62, "unit": "%"}
    ]}
  ]
}
